From patent US10669242B2 (priority 2016, dated 2020)

Each compound was assayed against T1, recombinant glucosyltransferase domain of C. difficile Toxin B/TcdB (Clostridioides difficile, UniProt P18177) (assay: biochemical).
T1 construct: 6-His (C); purchased R&D Systems 6246-GT
T1 sequence (P18177 1-543): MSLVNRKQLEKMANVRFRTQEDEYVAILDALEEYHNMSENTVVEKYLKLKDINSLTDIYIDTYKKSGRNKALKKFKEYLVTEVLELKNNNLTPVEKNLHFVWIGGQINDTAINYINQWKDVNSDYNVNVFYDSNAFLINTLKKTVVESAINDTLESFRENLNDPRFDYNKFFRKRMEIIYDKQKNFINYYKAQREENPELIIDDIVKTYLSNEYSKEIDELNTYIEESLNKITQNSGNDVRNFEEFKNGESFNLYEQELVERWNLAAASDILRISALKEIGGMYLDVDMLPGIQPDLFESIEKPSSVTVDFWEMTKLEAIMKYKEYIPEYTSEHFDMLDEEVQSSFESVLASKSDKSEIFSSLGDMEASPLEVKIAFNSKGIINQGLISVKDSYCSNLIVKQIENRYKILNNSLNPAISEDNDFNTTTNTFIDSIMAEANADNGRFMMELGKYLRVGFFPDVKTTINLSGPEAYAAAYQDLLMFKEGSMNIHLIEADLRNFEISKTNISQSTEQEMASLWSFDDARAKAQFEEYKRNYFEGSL

Row | Compound | IC50 [nM]
1 | COc1ccc(NC(=O)c2ccc(CN3C(=O)c4ccc(Cl)cc4NC(=O)[C@H]3Cc3ccccn3)cc2)nc1 [Example 4ao, (R)-4-((8-chloro-2,5-dioxo-3-(pyridin-2-ylmethyl)-2,3-dihydro-1H-benzo[e][1,4]diazepin-4(5H)-yl)methyl)-N-(5-methoxypyridin-2-yl)benzamide] | < 100
2 | Cc1cccnc1NC(=O)c1ccc(CN2C(=O)c3ccc(Cl)cc3NC(=O)[C@H]2Cc2cccnc2)cc1 [Example 4k, (R)-4-((8-chloro-2,5-dioxo-3-(pyridin-3-ylmethyl)-2,3-dihydro-1H-benzo[e][1,4]diazepin-4(5H)-yl)methyl)-N-(3-methylpyridin-2-yl)benzamide] | 100 to 999
3 | O=C(Nc1ccncn1)c1ccc(CN2C(=O)c3ccc(Cl)cc3NC(=O)[C@H]2Cc2cccnc2)cc1 [Example 4t, (R)-4-((8-chloro-2,5-dioxo-3-(pyridin-3-ylmethyl)-2,3-dihydro-1H-benzo[e][1,4]diazepin-4(5H)-yl)methyl)-N-(pyrimidin-4-yl)benzamide] | < 100
4 | Cc1cnc(NC(=O)c2ccc(CN3C(=O)c4ccc(Cl)cc4NC(=O)[C@H]3Cc3ccccn3)cc2Cl)s1 [Example 4cc, (R)-2-chloro-4-((8-chloro-2,5-dioxo-3-(pyridin-2-ylmethyl)-2,3-dihydro-1H-benzo[e][1,4]diazepin-4(5H)-yl)methyl)-N-(5-methylthiazol-2-yl)benzamide] | < 100
5 | Cc1ccc(NC(=O)c2ccc(CN3C(=O)c4ccc(Cl)cc4NC(=O)[C@H]3Cc3cscn3)cc2)nc1 [Example 4al, (R)-4-((8-chloro-2,5-dioxo-3-(thiazol-4-ylmethyl)-2,3-dihydro-1H-benzo[e][1,4]diazepin-4(5H)-yl)methyl)-N-(5-methylpyridin-2-yl)benzamide] | < 100
6 | O=C1Nc2cc(Cl)ccc2C(=O)N(Cc2cccc(NS(=O)(=O)c3ccccn3)c2)[C@@H]1Cc1ccccn1 [Example 30c] | 1000 to 10000
7 | O=C(O)c1ccc(CN2C(=O)c3ccc(Cl)cc3NC(=O)[C@H]2Cc2ccccn2)cc1-c1ccc(F)c(Cl)c1 [Example 8l, (R)-3′-chloro-5-((8-chloro-2,5-dioxo-3-(pyridin-2-ylmethyl)-2,3-dihydro-1H-benzo[e][1,4]diazepin-4(5H)-yl)methyl)-4′-fluoro-[1,1′-biphenyl]-2-carboxylic acid] | 100 to 999
8 | C[C@@H]1C(=O)Nc2cc(Cl)ccc2C(=O)N1Cc1ccc(C(=O)Nc2ccc(N3CCN(C)CC3)cn2)cc1 [Example 4bh, (R)-4-((8-chloro-3-methyl-2,5-dioxo-2,3-dihydro-1H-benzo[e][1,4]diazepin-4(5H)-yl)methyl)-N-(5-(4-methylpiperazin-1-yl)pyridin-2-yl)benzamide] | 100 to 999
9 | C[C@@H]1C(=O)Nc2cc(Cl)ccc2C(=O)N1Cc1ccc(C(=O)Nc2ccc(N3CCOCC3)cn2)cc1 [Example 4bf, (R)-4-((8-chloro-3-methyl-2,5-dioxo-2,3-dihydro-1H-benzo[e][1,4]diazepin-4(5H)-yl)methyl)-N-(5-morpholinopyridin-2-yl)benzamide] | 100 to 999
10 | COc1cnc(NC(=O)[C@H]2CC[C@H](CN3C(=O)c4ccc(Cl)cc4NC(=O)[C@H]3Cc3ccccn3)CC2)cn1 [Example 4ce, (1R,4r)-4-(((R)-8-chloro-2,5-dioxo-3-(pyridin-2-ylmethyl)-2,3-dihydro-1H-benzo[e][1,4]diazepin-4(5H)-yl)methyl)-N-(5-methoxypyrazin-2-yl)cyclohexanecarboxamide] | 100 to 999
11 | Cc1ccc(NC(=O)c2ccc(CN3C(=O)c4ccc(Cl)cc4NC(=O)[C@H]3Cc3ccsc3)cc2)nc1 [Example 35b] | < 100
12 | CC1(C)Cc2cccnc2N1C(=O)c1ccc(CN2C(=O)c3ccc(Cl)cc3NC(=O)[C@H]2Cc2ccccn2)cc1Cl [Example 4ar, (R)-8-chloro-4-(3-chloro-4-(2,2-dimethyl-2,3-dihydro-1H-pyrrolo[2,3-b]pyridine-1-carbonyl)benzyl)-3-(pyridin-2-ylmethyl)-3,4-dihydro-1H-benzo[e][1,4]diazepine-2,5-dione] | < 100
13 | Cc1cnc(NC(=O)c2ccc(S(=O)(=O)N3Cc4ccc(Cl)cc4NC(=O)[C@@H]3Cc3ccccn3)cc2)nc1 [Example 19e, (S)-4-((8-chloro-2-oxo-3-(pyridin-2-ylmethyl)-2,3-dihydro-1H-benzo[e][1,4]diazepin-4(5H)-yl)sulfonyl)-N-(5-methylpyrimidin-2-yl)benzamide] | 100 to 999
14 | COc1cnc(NC(=O)c2ccc(CN3C(=O)c4ccc(Cl)cc4NC(=O)[C@H]3Cc3ccccn3)s2)nc1 [Example 5r, (R)-5-((8-chloro-2,5-dioxo-3-(pyridin-2-ylmethyl)-2,3-dihydro-1H-benzo[e][1,4]diazepin-4(5H)-yl)methyl)-N-(5-methoxypyrimidin-2-yl)thiophene-2-carboxamide] | 100 to 999
15 | COc1cc(CN2C(=O)c3ccc(Cl)cc3NC(=O)[C@H]2Cc2ccccn2)ccc1C(=O)O [Example 7d, (R)-4-((8-chloro-2,5-dioxo-3-(pyridin-2-ylmethyl)-2,3-dihydro-1H-benzo[e][1,4]diazepin-4(5H)-yl)methyl)-2-methoxybenzoic acid] | 100 to 999
16 | N#Cc1cccc(C[C@@H]2C(=O)Nc3cc(Cl)ccc3C(=O)N2Cc2ccc(C(=O)O)cc2)c1 [Example 3n] | 1000 to 10000
17 | C[C@H]1C(=O)Nc2cc(Cl)ccc2C(=O)N1Cc1ccc(C(=O)O)cc1 [Example 3b] | 10000 to 35000

Row | Compound | IC50 [nM]
18 | Cc1ccc(NC(=O)c2ccc(CN3C(=O)c4ccc(N)cc4NC(=O)[C@H]3C)cc2)nc1 [Example 16a, (R)-4-((8-Amino-3-methyl-2,5-dioxo-2,3-dihydro-1H-benzo[e][1,4]diazepin-4(5H)-yl)methyl)-N-(5-methylpyridin-2-yl)benzamide] | 1000 to 10000
19 | Cc1cnc(NC(=O)c2ccc(CN3C(=O)c4ccc(Cl)cc4NC(=O)[C@H]3Cc3ccccn3)cc2)nc1 [Example 5l, (R)-4-((8-chloro-2,5-dioxo-3-(pyridin-2-ylmethyl)-2,3-dihydro-1H-benzo[e][1,4]diazepin-4(5H)-yl)methyl)-N-(5-methylpyrimidin-2-yl)benzamide] | < 100
20 | Cn1ccc(NC(=O)c2ccc(CN3C(=O)c4ccc(Cl)cc4NC(=O)[C@H]3Cc3cccnc3)cc2)n1 [Example 4d, (R)-4-((8-chloro-2,5-dioxo-3-(pyridin-3-ylmethyl)-2,3-dihydro-1H-benzo[e][1,4]diazepin-4(5H)-yl)methyl)-N-(1-methyl-1H-pyrazol-3-yl)benzamide] | 100 to 999
21 | O=C(Nc1ccc(CN2C(=O)c3ccc(Cl)cc3NC(=O)[C@H]2Cc2ccccn2)cc1)c1ccncn1 [Example 27c] | 100 to 999
22 | CN(C)C(=O)c1ccc(CN2C(=O)c3ccc(Cl)cc3NC(=O)[C@H]2Cc2cccnc2)cc1 [Example 13b, (R)-4-((8-chloro-2,5-dioxo-3-(pyridin-3-ylmethyl)-2,3-dihydro-1H-benzo[e][1,4]diazepin-4(5H)-yl)methyl)-N,N-dimethylbenzamide] | 10000 to 35000
23 | O=C(Nc1ccccn1)c1ccc(CN2C(=O)c3ccccc3NC(=O)[C@H]2Cc2cccnc2)cc1 [Example 35g] | 100 to 999
24 | O=C1Nc2cc(Cl)ccc2C(=O)N(Cc2ccc(CO)cc2)[C@@H]1Cc1ccccn1 [Example 41a, 8-Chloro-4-(4-(hydroxymethyl)benzyl)-3-(pyridin-2-ylmethyl)-3,4-dihydro-1H-benzo[e][1,4]diazepine-2,5-dione] | 1000 to 10000
25 | Cc1ccc(NC(=O)c2ccc(CN3C(=O)c4ccc(Cl)cc4NC(=O)[C@H]3Cc3ccccn3)cc2)nc1 [Example 4x, (R)-4-((8-chloro-2,5-dioxo-3-(pyridin-2-ylmethyl)-2,3-dihydro-1H-benzo[e][1,4]diazepin-4(5H)-yl)methyl)-N-(5-methylpyridin-2-yl)benzamide] | < 100
26 | CS(=O)(=O)NC(=O)c1ccc(CN2C(=O)c3ccc(Cl)cc3NC(=O)[C@H]2Cc2cccnc2)cc1 [Example 15b, (R)-4-((8-chloro-2,5-dioxo-3-(pyridin-3-ylmethyl)-2,3-dihydro-1H-benzo[e][1,4]diazepin-4(5H)-yl)methyl)-N-(methylsulfonyl)benzamide] | 1000 to 10000
27 | NC(=O)c1ccc(CN2C(=O)c3ccc(Cl)cc3NC(=O)[C@H]2Cc2cccnc2)cc1 [Example 13c, (R)-4-((8-chloro-2,5-dioxo-3-(pyridin-3-ylmethyl)-2,3-dihydro-1H-benzo[e][1,4]diazepin-4(5H)-yl)methyl)benzamide] | 1000 to 10000
28 | O=C(Nc1cnccn1)c1ccc(CN2C(=O)c3ccc(Cl)cc3NC(=O)[C@H]2Cc2ccccn2)cc1 [Example 5u, (R)-4-((8-chloro-2,5-dioxo-3-(pyridin-2-ylmethyl)-2,3-dihydro-1H-benzo[e][1,4]diazepin-4(5H)-yl)methyl)-N-(pyrazin-2-yl)benzamide] | < 100
29 | Cc1cncc(NC(=O)c2ccc(CN3C(=O)c4ccc(Cl)cc4NC(=O)[C@H]3C)cc2)n1 [Example 5o, (R)-4-((8-chloro-3-methyl-2,5-dioxo-2,3-dihydro-1H-benzo[e][1,4]diazepin-4(5H)-yl)methyl)-N-(6-methylpyrazin-2-yl)benzamide] | 100 to 999
30 | N#Cc1ccc(NC(=O)c2ccc(CN3C(=O)c4ccc(Cl)cc4NC(=O)[C@H]3Cc3ccccn3)cc2Cl)nc1 [Example 5au, (R)-2-chloro-4-((8-chloro-2,5-dioxo-3-(pyridin-2-ylmethyl)-2,3-dihydro-1H-benzo[e][1,4]diazepin-4(5H)-yl)methyl)-N-(5-cyanopyridin-2-yl)benzamide] | < 100
31 | O=C(O)c1ccc(CN2C(=O)c3ccc(Cl)cc3NC(=O)[C@H]2Cc2ccccn2)s1 [Example 1h] | 100 to 999
32 | O=C(Nc1nccs1)c1ccc(CN2C(=O)c3ccc(Cl)cc3NC(=O)[C@H]2Cc2cccnc2)cc1 [Example 4c, (R)-4-((8-chloro-2,5-dioxo-3-(pyridin-3-ylmethyl)-2,3-dihydro-1H-benzo[e][1,4]diazepin-4(5H)-yl)methyl)-N-(thiazol-2-yl)benzamide] | < 100
33 | O=C(O)c1ccc(CN2C(=O)c3ccc(Cl)cc3NC(=O)[C@H]2Cc2ccc(O)cc2)cc1 [Example 2d] | 1000 to 10000
34 | COc1cc(NC(=O)c2ccc(CN3C(=O)c4ccc(Cl)cc4NC(=O)[C@H]3Cc3cccnc3)cc2)ncn1 [Example 5j] | < 100
